This is an account of results in BindingDB's records for patent US20250282782 (Genzyme, 2025).

SMILES strings stand for the structures.

The target in this test is T1, Tyrosine-protein phosphatase non-receptor type 11 (Homo sapiens, UniProt Q06124).
T1 sequence (Q06124 whole entry): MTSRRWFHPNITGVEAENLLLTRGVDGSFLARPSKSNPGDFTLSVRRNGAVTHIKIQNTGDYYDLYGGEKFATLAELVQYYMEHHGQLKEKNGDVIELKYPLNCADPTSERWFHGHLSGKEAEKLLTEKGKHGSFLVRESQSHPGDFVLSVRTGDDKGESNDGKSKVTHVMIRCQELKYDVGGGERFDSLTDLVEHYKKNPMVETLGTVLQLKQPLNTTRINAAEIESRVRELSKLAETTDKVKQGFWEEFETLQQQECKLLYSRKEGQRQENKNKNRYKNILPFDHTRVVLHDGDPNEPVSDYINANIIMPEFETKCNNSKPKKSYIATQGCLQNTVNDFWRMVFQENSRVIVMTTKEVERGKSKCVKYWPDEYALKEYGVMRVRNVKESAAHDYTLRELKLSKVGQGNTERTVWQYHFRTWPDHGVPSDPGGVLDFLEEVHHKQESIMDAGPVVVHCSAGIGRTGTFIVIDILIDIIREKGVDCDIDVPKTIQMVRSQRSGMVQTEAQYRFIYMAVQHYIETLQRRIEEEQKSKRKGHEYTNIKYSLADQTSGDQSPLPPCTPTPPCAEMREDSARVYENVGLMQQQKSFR
The test can be described thus: Inhibition of SHP2 Phosphatase Activity Assay. As to the method:
Inhibition of SHP2 phosphatase activity was evaluated using human recombinant 6His-Nterm (SEQ ID NO: 1) SHP2 full-length (Thr2-Arg593, R&D system), NsCs bi-phosphorylated activating peptide (NH2-LN(pY)AQLWHA(PEG8)LTI(pY)ATIRRF-Amide.acetate (SEQ ID NO: 2), Thermofischer Scientific) and DiFMUP as surrogate phosphatase substrate (Molecular Probes). All reactions were performed at room temperature in 384-well black polystyrene non-binding plate (Corning) with the assay buffer (50 mM HEPES-NaOH pH 7.2, 100 mM NaCl, 0.5 mM EDTA, 0.001% Brij35 including 0.02% BSA and 1 mM DTT added extemporaneously). SHP2 was pre-incubated at least 10 min with the activating peptide (0.2 nM and 100 nM, respectively). 10 μL of this mixture was added to the assay plate, that already contained 15 nL of the compound (1000-0.05 nM). After 30 min pre-incubation, the enzymatic reaction was initiated by the addition of 5 μL DiFMUP in assay buffer without BSA (20 μM). The reaction was stopped by the addition of 15 μL sodium pervanadate solution (100 μM) after 45 min incubation. The fluorescence signal was measured at excitation and emission wavelengths of 350 nm and 450 nm, respectively, using a Pherastar instrument (BMG-LabTech).

As usually defined, the IC50 is the concentration that gives 50% inhibition. Low readings indicate greater potency, high ones weaker potency. Molecule `Cc1nc(N2CCC3(CC2)Cc2ncsc2[C@H]3N)c2ccnn2c1-c1cnn(C)c1C` [US20250282782, Compound 72] registered a concentration for half-maximal inhibition (IC50) of 27 nM.

Molecule `Cc1cc2c(cn1)CC1(CCN(c3nc(C)c(-c4cnn(C)c4C)n4nccc34)CC1)[C@@H]2N` [US20250282782, Compound 113] returned an IC50 of 28 nM.

Consider `Cc1nc(N2CCC3(CC2)Cc2scnc2[C@H]3N)c2ccnn2c1-c1ccccc1F` [US20250282782, Compound 66], for which the IC50 came to 22 nM.

For the molecule `Cc1ccc(F)c(-c2c(C)nc(N3CCC4(CC3)Cc3ncccc3[C@H]4N)c3ccnn23)c1` [US20250282782, Compound 205], half-maximal inhibition (IC50) required 11 nM.

In turn, `Cc1nc(N2CCC3(CC2)Cc2scnc2[C@H]3N)c2ccnn2c1-c1cnn(C)c1C` [US20250282782, Compound 67] gave a concentration for half-maximal inhibition (IC50) of 115 nM.

The molecule `Cc1nc(N2CCC3(CC2)Cc2ncccc2[C@H]3N)c2ccnn2c1-c1cc2c(cc1F)OCCO2` [US20250282782, Compound 58] came in with a half-maximal inhibitory concentration (IC50) of 35 nM.
